Article PMC11696749, “Deep Multitask Learning-Driven Discovery of New Compounds Targeting Leishmania infantum” (ACS Omega, 2024)
Read-outs that look alike come from different tables or passages of the source.

What was measured:
THP-1 = test system: THP-1; design: method as in ref 45 (Wyllie et al.); details: Figure 10; ref 45 (Wyllie et al.); cited from earlier work
L. donovani [1] = test system: L. donovani; design: method as in ref 45 (Wyllie et al.); details: Figure 10; ref 45 (Wyllie et al.); cited from earlier work
[2] = test system: L. infantum (MHOM/BR/2002/LPC-RPV) promastigotes; test: In vitro antileishmanial activity against promastigotes (resazurin); assay type: cell-based, Leishmania infantum; details: 48 h at 28 °C, three independent experiments
Description: (§1) L. infantum (MHOM/BR/2002/LPC-RPV) promastigotes were maintained in Schneider’s medium supplemented with 10% (v/v) fetal bovine serum (FBS, Gibco) and 100 U/mL penicillin and 100 μg/mL streptomycin at 28 °C. MRC-5 human primary fetal lung fibroblast cells were maintained in RPMI 1640 medium supplemented with 10% heat-inactivated fetal calf serum (FCS) and 25 mM HEPES under a 5% CO2 atmosphere at 37 °C and pH 7.4.
To evaluate the effect of prioritized compounds on parasite viability, 4 × 10^6 promastigotes/mL were incubated in the presence of a series of 11 points from 200–0.195 or 50–0.04 μM plus control (0.1% DMSO) for 48 h at 28 °C to a final volume of 200 μL in 96-well microplate. Next, 20 μL of resazurin solution (0.39 mM) was added to each well and incubated for 4 h, and then fluorescence was recorded (570 nmex/595 nmem) on a microplate reader SpectraMax M5 (Molecular Devices, Sunnyvale, CA). The IC50 from three independent experiments was calculated from the dose–response curve fitted in a four-parameter logistic, nonlinear regression model using GraphPad Prism software (CA) v.8.

[3] = In vitro cytotoxicity test on MRC-5 cells (resazurin); assay type: cell-based, human; details: human, MRC-5 primary fetal lung fibroblast cells, pH 7.4, MRC-5 cells, 72 h incubation, resazurin; two independent experiments
Description: as §1
(§2) MRC-5 cells were seeded in 96-well plates at a density of 1 × 10^4 cells/well using 100 μL of medium. After 24 h, compounds were serially diluted in another set of 96-well plates starting from a concentration of 250 μM (11 dilution points plus the control), using 100 μL of complete culture medium per well. Subsequently, 100 μL of these diluted compounds were transferred to the seeded cells. Amphotericin B (Sigma-Aldrich) dissolved in DMSO was used as a control and diluted from an initial concentration of 0.5 μM. After 72 h of incubation, resazurin was added to a final concentration of 45 μM and incubated for 4 h before measuring fluorescence.

[4] = test system: MRC-5 human primary fetal lung fibroblast cells; test: as above; assay type: cell-based; details: for SI (selectivity index): ratio of CC50 (MRC-5) to IC50 (L. infantum)
Description: as §1, §2

L. donovani [5] = test system: L. donovani; design: method as in ref 44 (Khare et al.); details: Figure 10; ref 44 (Khare et al.); cited from earlier work
3T3 = test system: 3T3; design: method as in ref 44 (Khare et al.); details: Figure 10; ref 44 (Khare et al.); cited from earlier work
macrophage = test system: macrophage; design: method as in ref 44 (Khare et al.); details: Figure 10; ref 44 (Khare et al.); cited from earlier work

SMILES	IC50 ([2]; Leishmania infantum, 48 h) [µM]	CC50 at 72 h [3] [µM]	also measured
O=C(Nc1ccc(F)c(-c2cn3cc(-c4ccccc4)cnc3n2)c1)N1CCCC1 [compound 6]			CC50 (THP-1): > 50 µM; IC50 (L. donovani [1]): 0.15 µM
Cc1nc(C)c(C(=O)Nc2ccc(F)c(-c3nc4ncc(-c5ccccc5)cn4n3)c2)o1 [GNF3849]			IC50 (L. donovani [5]): 0.071 µM
Cc1nc(C)c(C(=O)Nc2ccc(F)c(-c3nc4ncc(-c5ccccn5)cn4n3)c2)o1 [GNF6702]			IC50 (L. donovani [5]): 0.0018 µM
CC(C)OC(=O)Nc1cnc2nc(-c3cc(NC(=O)c4ccco4)ccc3Cl)cn2c1 [GNF2636]			IC50 (L. donovani [5]): 0.35 µM; CC50 (3T3): 3.5 µM; CC50 (macrophage): 14.1 µM
O=C(Nc1ccc(F)c(-c2cn3nc(-c4ccccc4)cnc3n2)c1)N1CCCC1 [compound 7]			CC50 (THP-1): > 50 µM; IC50 (L. donovani [1]): 0.35 µM
Cc1cc(NCc2ccncc2C)nc(N2CCCCC2)n1 [LC-20]	> 100		
O=C(Nc1ccc(Cl)c(-c2nc3ncccc3o2)c1)c1cccs1 [LC-15]	1.5	> 32.4	IC50 [2]: 1.05 ± 0.37 µM; CC50 ([4]; MRC-5 cells, 72 h incubation, resazurin, two independent experiments): 32.4 ± 8.31 µM; SI (selectivity index) [4]: 30.9
C[C@@H]1[C@H](O)[C@@H](C)/C=C/C=C/C=C/C=C/C=C/C=C/C=C/[C@H](O[C@@H]2O[C@H](C)[C@@H](O)[C@H](N)[C@@H]2O)C[C@@H]2O[C@](O)(C[C@@H](O)C[C@@H](O)[C@H](O)CC[C@@H](O)C[C@@H](O)CC(=O)O[C@H]1C)C[C@H](O)[C@H]2C(=O)O [Amphotericin B, reference compound]	0.079 ± 0.001	> 0.67	

More lines, main results first:

IC50 ([2]; Leishmania infantum, 48 h) [µM]	SMILES	CC50 at 72 h [3] [µM]	also measured
> 100	Cc1nc(O)cc(C2CCN(c3nccc(-c4ccccn4)n3)CC2)n1 [LC-27]		
> 100	Cc1nc2ccc(Cl)cn2c1C(=O)N1CCCC1c1ccccn1 (centres unmarked) [LC-25]		
17.1 ± 2.89	Cc1cc(C)nc(-n2nc(C)c3c2NC(=O)CC3c2ccc3c(c2)OCO3)n1 (centres unmarked) [LC-35]	145 ± 21.8	SI (selectivity index) [4]: 8.47
> 100	O=C(Nc1cccnc1Cl)c1cc(-c2ccc3c(c2)OCO3)on1 [LC-36]		
> 100	CC(=O)Nc1ccc(S(=O)(=O)Nc2cc(C)nn2-c2ccccn2)cc1 [LC-38]		
4.51 ± 2.25	Fc1ccc(OCc2nc3cc(Cl)ccc3[nH]2)cc1 [LC-31]	40.7 ± 4.33	SI (selectivity index) [4]: 9.04
15.6 ± 2.36	Cc1ccc(C2CC(=O)Nc3c2c(C)nn3-c2nc(C)cc(C)n2)cc1 (centres unmarked) [LC-37]	> 250	SI (selectivity index) [4]: >15.9
11.9 ± 1.7	CN1CCC(Nc2nccc(-c3ccccn3)n2)C(Cc2ccccc2)C1 (centres unmarked) [LC-26]	48.4 ± 16.9	
